Experiments:
[1] = biological target: T1, Cytoplasmic tyrosine-protein kinase BMX (Homo sapiens) (UniProt P51813); assay: Selectivity interaction (KinomeScan (DiscoverX)) EUB0000229b BMX; details: at 10 µM
T1 sequence (whole entry): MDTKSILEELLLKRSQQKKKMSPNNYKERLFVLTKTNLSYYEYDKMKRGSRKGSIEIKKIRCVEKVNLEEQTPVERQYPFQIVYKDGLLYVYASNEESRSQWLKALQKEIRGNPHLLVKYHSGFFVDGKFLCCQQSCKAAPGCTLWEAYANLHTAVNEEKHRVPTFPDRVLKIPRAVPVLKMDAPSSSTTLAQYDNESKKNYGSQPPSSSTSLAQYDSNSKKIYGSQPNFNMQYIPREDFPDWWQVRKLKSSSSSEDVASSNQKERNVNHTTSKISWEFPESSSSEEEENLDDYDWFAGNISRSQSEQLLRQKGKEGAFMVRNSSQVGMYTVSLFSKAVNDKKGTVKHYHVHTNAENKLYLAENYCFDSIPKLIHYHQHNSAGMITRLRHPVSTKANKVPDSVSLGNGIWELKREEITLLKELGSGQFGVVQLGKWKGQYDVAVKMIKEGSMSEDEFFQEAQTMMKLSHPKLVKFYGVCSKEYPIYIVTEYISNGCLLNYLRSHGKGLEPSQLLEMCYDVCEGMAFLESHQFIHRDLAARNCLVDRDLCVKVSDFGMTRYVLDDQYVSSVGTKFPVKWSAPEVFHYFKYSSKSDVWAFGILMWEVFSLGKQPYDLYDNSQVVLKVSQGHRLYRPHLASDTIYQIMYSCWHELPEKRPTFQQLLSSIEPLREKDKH

[2] = biological target: T2, Myosin-IIIb (Homo sapiens) (UniProt Q8WXR4); assay: Selectivity interaction (LanthaScreen Eu Kinase Binding Assay) EUB0001632a MYO3B; details: at 10 µM
T2 sequence (whole entry): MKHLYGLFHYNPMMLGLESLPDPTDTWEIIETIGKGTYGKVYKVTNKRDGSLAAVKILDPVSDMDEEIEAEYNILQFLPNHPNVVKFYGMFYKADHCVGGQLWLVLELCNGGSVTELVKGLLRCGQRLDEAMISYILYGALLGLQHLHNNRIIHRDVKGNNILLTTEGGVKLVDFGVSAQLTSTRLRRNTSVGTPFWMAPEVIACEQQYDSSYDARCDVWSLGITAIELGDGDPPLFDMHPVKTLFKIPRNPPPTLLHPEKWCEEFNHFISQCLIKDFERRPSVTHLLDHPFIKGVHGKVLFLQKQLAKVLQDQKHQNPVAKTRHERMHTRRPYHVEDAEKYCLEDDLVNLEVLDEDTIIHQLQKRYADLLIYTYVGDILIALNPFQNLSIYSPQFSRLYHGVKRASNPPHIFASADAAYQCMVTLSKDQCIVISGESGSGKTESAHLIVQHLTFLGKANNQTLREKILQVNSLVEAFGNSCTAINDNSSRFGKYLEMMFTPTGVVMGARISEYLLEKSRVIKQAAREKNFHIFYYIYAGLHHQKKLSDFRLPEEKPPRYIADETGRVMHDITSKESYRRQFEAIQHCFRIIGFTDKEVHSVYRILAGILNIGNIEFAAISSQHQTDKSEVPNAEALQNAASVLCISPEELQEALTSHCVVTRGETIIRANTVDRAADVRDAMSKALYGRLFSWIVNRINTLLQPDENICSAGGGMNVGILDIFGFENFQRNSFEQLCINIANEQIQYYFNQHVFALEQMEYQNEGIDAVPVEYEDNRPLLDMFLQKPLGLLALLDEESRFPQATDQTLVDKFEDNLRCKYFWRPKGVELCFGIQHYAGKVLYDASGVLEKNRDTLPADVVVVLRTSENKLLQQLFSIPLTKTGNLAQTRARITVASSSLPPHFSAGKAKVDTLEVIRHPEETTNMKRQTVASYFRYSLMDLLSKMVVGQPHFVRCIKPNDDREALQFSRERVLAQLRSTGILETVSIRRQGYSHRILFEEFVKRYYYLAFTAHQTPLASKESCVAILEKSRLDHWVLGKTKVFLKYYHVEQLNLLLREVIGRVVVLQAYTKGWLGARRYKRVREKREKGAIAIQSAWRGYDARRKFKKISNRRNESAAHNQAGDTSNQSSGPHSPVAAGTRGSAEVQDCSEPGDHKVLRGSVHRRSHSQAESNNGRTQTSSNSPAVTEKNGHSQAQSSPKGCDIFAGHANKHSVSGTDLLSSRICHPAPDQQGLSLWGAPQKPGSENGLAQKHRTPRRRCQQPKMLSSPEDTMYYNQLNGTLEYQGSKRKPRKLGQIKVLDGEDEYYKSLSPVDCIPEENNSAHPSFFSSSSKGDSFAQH

[3] = biological target: Serine/threonine-protein kinase Chk2 (Homo sapiens) (UniProt O96017); assay: Selectivity interaction (KinomeScan (DiscoverX)) EUB0001049a CHEK2; details: at 1 µM
Serine/threonine-protein kinase Chk2 (Homo sapiens), sequence (O96017 whole entry): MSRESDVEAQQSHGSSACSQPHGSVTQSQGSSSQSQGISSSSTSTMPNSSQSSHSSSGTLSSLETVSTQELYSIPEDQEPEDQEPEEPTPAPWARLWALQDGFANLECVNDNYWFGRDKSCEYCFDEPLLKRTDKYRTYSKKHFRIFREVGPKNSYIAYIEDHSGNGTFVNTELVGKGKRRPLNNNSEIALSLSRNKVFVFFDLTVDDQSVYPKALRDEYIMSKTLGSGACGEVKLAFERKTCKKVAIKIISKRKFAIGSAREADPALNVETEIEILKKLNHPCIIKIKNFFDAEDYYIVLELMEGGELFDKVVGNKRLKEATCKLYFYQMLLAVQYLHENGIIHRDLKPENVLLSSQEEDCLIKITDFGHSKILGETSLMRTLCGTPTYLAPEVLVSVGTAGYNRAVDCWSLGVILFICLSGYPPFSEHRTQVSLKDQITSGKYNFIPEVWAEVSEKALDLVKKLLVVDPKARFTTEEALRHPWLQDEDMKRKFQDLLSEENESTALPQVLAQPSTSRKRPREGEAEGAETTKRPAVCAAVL

In the case of `COc1cc(N(C)c2ccnc3ccc(C(F)(F)F)cc23)cc(OC)c1OC`, the % binding [1] is reported as 88%.

With `Cn1cc(-n2cnc3c(NCc4nc5cc(Cl)c(Cl)cc5[nH]4)nc(N4CCOCC4)nc32)cn1` the % of inhibition [2] was -8.99%.

`COc1cc(Nc2nc(C)cc(-c3cnn4nc(OC)ccc34)n2)cc(C(F)(F)F)c1` showed a % of control [3] of 54%.

Reference: ChEMBL document CHEMBL5465560, “Selectivity Literature for EUbOPEN Chemogenomic Library” (2024)
